Reference: US20180028516A1, “METHODS AND DEVICES FOR THE TREATMENT OF OCULAR DISEASES IN HUMAN SUBJECTS” (CLEARSIDE BIOMEDICAL, INC., priority 2012, published 2018)
Entries after “also recorded” stand apart in the source; their conditions may differ.

How the values were obtained:
[1] = Ocular histopathology after SCS TA (Example 9); type: in vivo, New Zealand White rabbit
Method: In this study, the ocular tolerability and toxicokinetics of suprachoroidal administration of triamcinolone acetonide (TA) using a microneedle in a GLP study in the New Zealand White rabbit.
(§1) On Day 0, New Zealand White (NZW) rabbits were administered a single bilateral supraehoroidal injection of vehicle, 3.2 mg (80 μL) or 5.2 mg (130 μL) of TA (Triesence®, Alcoa labs) using a 33 g 750 μm microneedle. Clinical observations, slit lamp biomicroscopy with McDonald-Shadduck scoring, intraocular pressure assessment (IOP), electroretinography (ERG), and systemic exposure were assessed up to 26 weeks post-dose. Animals were sacrificed on Day 1, Week 13, and Week 26 for macroscopic observations, ocular toxicokinetics, and ocular histopathology.

[2] = Plasma and ocular matrix toxicokinetics after SCS TA, LC-MS/MS (Example 9); type: in vivo, New Zealand White rabbit
Method: as §1
Plasma and oct lar matrixes (aqueous humor (AH), lens, iris/ciliary body (ICB), vitreous humor (VH), sclera/choroid (SC), and retina) were sampled on Days 1, 14, 28, and 60. Plasma (LLOQ 0.5 ng/mL) and ocular matrixes (LLOQ 2-15 ng/mL) were analyzed using LC-MS/MS, and resulting data were assessed for noncompartmental PK parameters. Systemic exposure to TA was minimal (FIG. 20C).

[3] = system: LPS-induced acute posterior uveitis; assay: Wide-field ocular fundus digital photography in porcine uveitis study (Example 13); type: in vivo, domestic weanling pigs; conditions: 3 days after treatment
Excerpt: On study days −1, 0 and 3, with the animals anesthetized arid pupils dilated with tropicamide 1%, the ocular fundus was photographed using standardized illumination and focus by a wide-field digital imaging system (Retcam II, Clarity Medical Systems, Pleasanton, Calif.).

[4] = parameters: species or system New Zealand White rabbit; conditions: rabbit, in vivo
Method: In this study, the ocular tolerability and toxicokinetics of suprachoroidal administration of Ting triamcinolone acetonide (TA) using microneedle was determined, in the New Zealand White rabbit as an animal model.
On Day 0, New Zealand White (NZW) rabbits (4/sex/group/terminal time point, 48 total) were administered a single bilateral suprachoroidal injection of 100 μL of 4 ma TA (40 mg/mL) or vehicle, using a 33 g 750 μm microneedle. Clinical Observations, body weights, food consumption, slit lamp biomicroscopy with McDonald-Shadduck scoring, indirect ophthalmoscopy, intraocular pressure assessment (IOP), central corneal thickness (CCT), electroretinography (ERG), serum chemistry and hematology, and systemic exposure were assessed up to 13 weeks post-dose. Animals were sacrificed on Day 1 or Week 13 and were evaluated for macroscopic observations at necropsy and ocular histopathology. Four animals/sex were given an additional suprachoroidal administration on Day 90, and will be followed for an additional 13 weeks.

CC1(C)O[C@@H]2C[C@H]3[C@@H]4CCC5=CC(=O)C=C[C@]5(C)[C@@]4(F)[C@@H](O)C[C@]3(C)[C@]2(C(=O)CO)O1 [TA, triamcinolone acetonide]
adverse effects related to the method of administration or treatments, as assessed by histopathology ([1]; 3.2 or 5.2 mg TA SCS): no adverse effects
inflammatory cells and test article in the suprachoroidal space (histopathology) ([1]; 3.2 or 5.2 mg TA SCS): observed in the suprachoroidal space of TA-treated animals on Day 1 but not Week 13
Ciliary process edema, animals with finding ([1]; Day 1, 3.2 mg TA/eye SCS, F): 4
Corneal epithelial thinning, animals with finding ([1]; Day 1, 3.2 mg TA/eye SCS, F): 2
Inflammatory cells in SCS, animals with finding ([1]; Day 1, 3.2 mg TA/eye SCS, F): 4
TA in SCS, animals with finding ([1]; Day 1, 3.2 mg TA/eye SCS, F): 5
Ciliary process edema, animals with finding ([1]; Day 1, 3.2 mg TA/eye SCS, M): 4
Conjunctival subepithelial inflammatory cells, animals with finding ([1]; Day 1, 3.2 mg TA/eye SCS, M): 3
Corneal epithelial thinning, animals with finding ([1]; Day 1, 3.2 mg TA/eye SCS, M): 3
Inflammatory cells in SCS, animals with finding ([1]; Day 1, 3.2 mg TA/eye SCS, M): 5
TA in SCS, animals with finding ([1]; Day 1, 3.2 mg TA/eye SCS, M): 5
Ciliary process edema, animals with finding ([1]; Day 1, 5.2 mg TA/eye SCS, F): 5
Conjunctival subepithelial inflammatory cells, animals with finding ([1]; Day 1, 5.2 mg TA/eye SCS, F): 3
Corneal epithelial thinning, animals with finding ([1]; Day 1, 5.2 mg TA/eye SCS, F): 1
Inflammatory cells in SCS, animals with finding ([1]; Day 1, 5.2 mg TA/eye SCS, F): 5
Small area of retinal damage (attributed to needle insertion), animals with finding ([1]; Day 1, 5.2 mg TA/eye SCS, F): 1
TA in SCS, animals with finding ([1]; Day 1, 5.2 mg TA/eye SCS, F): 5
Ciliary process edema, animals with finding ([1]; Day 1, 5.2 mg TA/eye SCS, M): 4
Conjunctival subepithelial inflammatory cells, animals with finding ([1]; Day 1, 5.2 mg TA/eye SCS, M): 2
Corneal epithelial thinning, animals with finding ([1]; Day 1, 5.2 mg TA/eye SCS, M): 3
Inflammatory cells in SCS, animals with finding ([1]; Day 1, 5.2 mg TA/eye SCS, M): 5
TA in SCS, animals with finding ([1]; Day 1, 5.2 mg TA/eye SCS, M): 4
Ciliary process edema, animals with finding ([1]; Week 13, 3.2 mg TA/eye SCS, F): 1
Dilated choroidal vessels, animals with finding ([1]; Week 13, 3.2 mg TA/eye SCS, F): 1
Small area of retinal damage (attributed to needle insertion), animals with finding ([1]; Week 13, 3.2 mg TA/eye SCS, F): 1
Ciliary process edema, animals with finding ([1]; Week 13, 3.2 mg TA/eye SCS, M): 3
Ciliary process edema, animals with finding ([1]; Week 13, 5.2 mg TA/eye SCS, F): 3
Ciliary process edema, animals with finding ([1]; Week 13, 5.2 mg TA/eye SCS, M): 1
Dilated choroidal vessels, animals with finding ([1]; Week 13, 5.2 mg TA/eye SCS, M): 1
systemic exposure to TA ([2]; 3.2 or 5.2 mg TA SCS, plasma): minimal
difference between TA levels in sclera/choroid and in the vitreous ([2]; SCS TA): 6 orders of magnitude
amount of TA retained in the retina, high dose vs low dose ([2]; by day 15, SCS): did not significantly differ
amount of TA retained in the sclera/choroid, high dose vs low dose ([2]; by day 30, SCS): did not significantly differ
order of TA in ocular matrixes (decreasing) ([2]; following SCS TA): SC>retina>ICB>VH>lens>AU
sclera/choroid tissue concentration of TA ([2]; for longer than 28 days after a single SCS dose): greater than 100 μg/g tissue
TA peak concentration in plasma ([2]; peaked on Day 1, both the high and low TA dose groups (5.2 and 3.2 mg SCS)): around 12 nglint
ocular fundus images (vitreal cloudiness) ([3]; 0.2 mg TA IVT): only slightly improved over vehicle treated eyes
ocular fundus images (vitreal cloudiness) ([3]; 0.2 mg TA SCS): less vitreal cloudiness and similar to the pre-treatment fundus appearance; also recorded: near pre-treatment appearance
ocular fundus images (vitreal cloudiness) ([3]; 2.0 mg TA IVT): less vitreal cloudiness and similar to the pre-treatment fundus appearance; also recorded: near pre-treatment appearance
ocular fundus images (vitreal cloudiness) ([3]; 2.0 mg TA SCS): less vitreal cloudiness and similar to the pre-treatment fundus appearance; also recorded: near pre-treatment appearance
IOP change related to the injection procedure [4]: decrease
adverse effects related to the method of administration or 4 mg TA as assessed by histopathology [4]: no adverse effects
central corneal thickness (CCT) [4]: slight decrease
mean Cmax in plasma ([4]; 4 mg): 12 ng/mL
